Assays:
Saccharomyces cerevisiae = experiment: Cytotoxicity against yeast at 50 uM; type: organism-based; conditions: in vivo
[1] = molecular target: NAD-dependent histone deacetylase SIR2 (Saccharomyces cerevisiae S288c) (UniProt P06700); experiment: Inhibition of Sir 2 protein mediated transcriptional silencing at the telomeric locus in yeast at 50 uM after 24 to 48 hrs by URA3 reporter gene assay
[2] = molecular target: NAD-dependent histone deacetylase SIR2 (Saccharomyces cerevisiae S288c) (UniProt P06700); experiment: Inhibition of Sir 2 protein mediated transcriptional silencing at the telomeric locus in yeast after 24 to 48 hrs by URA3 reporter gene assay
[3] = molecular target: NAD-dependent histone deacetylase SIR2 (Saccharomyces cerevisiae S288c) (UniProt P06700); experiment: Inhibition of Sir 2 protein mediated transcriptional silencing at the telomeric locus in yeast at 100 uM after 24 to 48 hrs by URA3 reporter gene assay
[4] = molecular target: NAD-dependent histone deacetylase SIR2 (Saccharomyces cerevisiae S288c) (UniProt P06700); experiment: Inhibition of Sir 2 protein mediated transcriptional silencing at the telomeric locus in yeast at 30 uM after 24 to 48 hrs by URA3 reporter gene assay
[5] = molecular target: NAD-dependent histone deacetylase SIR2 (Saccharomyces cerevisiae S288c) (UniProt P06700); experiment: Inhibition of Sir 2 protein mediated transcriptional silencing at the telomeric locus in yeast at 10 uM after 24 to 48 hrs by URA3 reporter gene assay
[6] = molecular target: NAD-dependent histone deacetylase SIR2 (Saccharomyces cerevisiae S288c) (UniProt P06700); experiment: Inhibition of Sir 2 protein mediated transcriptional silencing at the telomeric locus in yeast at 1 uM after 24 to 48 hrs by URA3 reporter gene assay

Sequence of NAD-dependent histone deacetylase SIR2 (Saccharomyces cerevisiae S288c) (P06700 whole entry): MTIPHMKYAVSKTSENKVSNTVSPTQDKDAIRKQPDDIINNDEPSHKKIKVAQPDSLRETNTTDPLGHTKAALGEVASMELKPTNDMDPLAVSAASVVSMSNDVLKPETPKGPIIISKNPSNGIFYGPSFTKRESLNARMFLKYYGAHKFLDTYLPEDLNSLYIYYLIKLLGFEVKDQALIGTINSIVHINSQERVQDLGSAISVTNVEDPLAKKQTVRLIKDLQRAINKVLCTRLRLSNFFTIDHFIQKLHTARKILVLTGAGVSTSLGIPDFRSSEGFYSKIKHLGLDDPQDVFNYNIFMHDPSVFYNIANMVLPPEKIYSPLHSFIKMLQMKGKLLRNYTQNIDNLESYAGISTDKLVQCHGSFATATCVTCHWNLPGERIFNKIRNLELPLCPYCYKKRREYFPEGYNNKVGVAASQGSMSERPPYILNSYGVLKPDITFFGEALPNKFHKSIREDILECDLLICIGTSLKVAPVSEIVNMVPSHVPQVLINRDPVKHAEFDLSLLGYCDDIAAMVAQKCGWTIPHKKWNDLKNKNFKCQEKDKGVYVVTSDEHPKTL

Row | Compound | inhibition [1] [%] | inhibition [2] | inhibition [3] [%] | inhibition [4] [%] | inhibition [5] [%] | inhibition [6] [%] | Activity (Saccharomyces cerevisiae)
1 | CS(=O)(=O)n1c(CN2C(=O)C3(NC(=O)c4ccccc4N3)c3ccccc32)cc2cc(F)ccc21 (stereo not drawn) | 30.3 | – | – | – | – | – | Non-toxic
2 | COc1ccc2c(c1)cc(CN1C(=O)C3(NC(=O)c4ccccc4N3)c3ccccc31)n2S(C)(=O)=O (stereo not drawn) | 39 | Dose-dependent effect | 67 | 29 | 20 | 9 | Non-toxic
3 | CS(=O)(=O)n1c(CN2C(=O)C3(NC(=O)c4ccccc4N3)c3ccccc32)cc2cc(Cl)ccc21 (stereo not drawn) | 30.9 | – | – | – | – | – | Non-toxic
4 | Cc1ccc2c(c1)cc(CN1C(=O)C3(NC(=O)c4ccccc4N3)c3ccccc31)n2S(C)(=O)=O (stereo not drawn) | 40.9 | – | – | – | – | – | Non-toxic
5 | CS(=O)(=O)n1c(CN2C(=O)C3(NC(=O)c4ccccc4N3)c3ccccc32)cc2cc(C(F)(F)F)ccc21 (stereo not drawn) | 39.6 | – | – | – | – | – | Non-toxic
6 | CS(=O)(=O)n1c(CN2C(=O)C3(NC(=O)c4ccccc4N3)c3ccccc32)cc2cc(Br)ccc21 (stereo not drawn) | 38.5 | – | – | – | – | – | Non-toxic

Second part, led by results:

Row | inhibition [1] [%] | inhibition [2] | inhibition [3] [%] | inhibition [4] [%] | inhibition [5] [%] | inhibition [6] [%] | Compound | Activity (Saccharomyces cerevisiae)
7 | 38.4 | – | – | – | – | – | Cc1ccc(S(=O)(=O)n2c(CN3C(=O)C4(NC(=O)c5ccccc5N4)c4ccccc43)cc3cc(C(F)(F)F)ccc32)cc1 (stereo not drawn) | Non-toxic
8 | 40.9 | Dose-dependent effect | 56 | 37 | 30 | 18 | Cc1ccc(S(=O)(=O)n2c(CN3C(=O)C4(NC(=O)c5ccccc5N4)c4ccccc43)cc3cc(Cl)ccc32)cc1 (stereo not drawn) | Non-toxic
9 | 16.4 | – | – | – | – | – | Cc1ccc(S(=O)(=O)n2c(CN3C(=O)C4(NC(=O)c5ccccc5N4)c4ccccc43)cc3cc(Br)ccc32)cc1 (stereo not drawn) | Non-toxic
10 | 41 | Dose-dependent effect | 61 | 32 | 25 | 12 | COc1ccc2c(c1)cc(CN1C(=O)C3(NC(=O)c4ccccc4N3)c3ccccc31)n2S(=O)(=O)c1ccc(C)cc1 (stereo not drawn) | Non-toxic
11 | 15.2 | – | – | – | – | – | Cc1ccc(S(=O)(=O)n2c(CN3C(=O)C4(NC(=O)c5ccccc5N4)c4ccccc43)cc3cc(F)ccc32)cc1 (stereo not drawn) | Non-toxic
12 | 13.9 | – | – | – | – | – | CS(=O)(=O)n1c(CN2C(=O)C3(NC(=O)c4ccccc4N3)c3ccccc32)cc2ccccc21 (stereo not drawn) | Non-toxic
13 | 36.5 | – | – | – | – | – | Cc1ccc(S(=O)(=O)n2c(CN3C(=O)C4(NC(=O)c5ccccc5N4)c4ccccc43)cc3ccccc32)cc1 (stereo not drawn) | Non-toxic
14 | 1.2 | – | – | – | – | – | Cc1ccc(S(=O)(=O)n2c(CN3C(=O)C4(NC(=O)c5ccccc5N4)c4ccccc43)cc3cc(C)ccc32)cc1 (stereo not drawn) | Non-toxic

From ChEMBL document CHEMBL2331256, “Spiro heterocycles as potential inhibitors of SIRT1: Pd/C-mediated synthesis of novel N-indolylmethyl spiroindoline-3,2'-quinazolines” (Bioorg Med Chem Lett, 2013)
